According to patent US20130281465A1, “PYRAZOLE DERIVATIVE” (TAISHO PHARMACEUTICAL CO., LTD., priority 2010, published 2013):

Experiments:
[1] = target: T1, human orexin type 1 receptor (hOX1R) (Homo sapiens, UniProt O43613); experiment: Orexin receptor antagonistic activity, intracellular Ca2+ fluorescence (FDSS) in CHO cells expressing hOX1R; format: cell-based; settings: CHO cells forced to express hOX1R; orexin-A analogue peptide ligand 300 pM; Fluo-4 maximum fluorescence; read-out: IC50 value OX1R
T1 construct: expressed in transfected cells; host or cells: Chinese hamster ovary (CHO) cells
T1 sequence (O43613 1-425): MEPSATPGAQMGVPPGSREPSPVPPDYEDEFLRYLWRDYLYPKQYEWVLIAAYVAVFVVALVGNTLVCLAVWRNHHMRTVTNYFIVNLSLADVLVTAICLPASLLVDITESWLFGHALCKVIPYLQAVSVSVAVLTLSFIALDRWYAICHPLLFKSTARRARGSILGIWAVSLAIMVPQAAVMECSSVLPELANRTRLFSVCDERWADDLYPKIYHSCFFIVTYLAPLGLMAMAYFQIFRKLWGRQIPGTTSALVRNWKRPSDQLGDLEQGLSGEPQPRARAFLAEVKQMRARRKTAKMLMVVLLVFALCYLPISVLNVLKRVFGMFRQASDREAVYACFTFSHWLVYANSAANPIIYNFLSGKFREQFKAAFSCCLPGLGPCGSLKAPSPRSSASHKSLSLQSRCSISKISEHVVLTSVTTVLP
Experimental: (§1) The antagonistic activity of each test compound against human orexin type 1 receptor (hOX1R) and orexin type 2 receptor (hOX2R) was performed as described in the literature with a modification (Toshikatsu Okumura et al., Biochemical and Biophysical Research Communications 280, 976-981, 2001). Chinese hamster ovary (CHO) cells forced to express hOX1R or hOX2R were seeded at 20,000 cells/well on a 96 well Black clear bottom plates (Nunc) and cultured for 16 hours under conditions of 37° C. and 5% CO2 using a Ham's F-12 medium containing 0.1 mM MEM non-essential amino acids, 0.5 mg/ml G418, and 10% fetal bovine serum (all from Invitrogen Corp.). After removal of the medium, 100 μL of the assay buffer (25 mM HEPES (Dojindo Laboratories), Hanks' balanced salt solution (Invitrogen Corp.), 0.1% bovine serum albumin, 2.5 mM probenecid, 200 μg/ml Amaranth (all from Sigma-Aldrich Corp.), pH 7.4) containing 0.5 μM Fluo-4AM ester (Dojindo Laboratories) was added thereto, and the cells were incubated for 60 minutes under conditions of 37° C. and 5% CO2. After removal of the buffer solution for assay containing Fluo-4AM ester, the test compound was dissolved at a concentration of 10 mM in dimethyl sulfoxide and diluted with the assay buffer, and 150 μL of the diluted solution was then added to each wells, which were then incubated for 30 minutes.
(§2) A peptide (Pyr-[…]11e-Leu-Thr-Leu-NH2; Peptide Institute, Inc.) substituted 2 amino acids of human orexin-A was diluted with the assay buffer to 300 pM (final concentration for hOX1R) or 3 nM (final concentration for hOX2R). 50 μL of this ligand solution was added thereto to start reaction. During the reaction, the fluorescence value of each well was measured every one second for 3 minutes using Functional Drug Screening System (FDSS; manufactured by Hamamatsu Photonics K.K.), and antagonistic activity was determined with the maximum fluorescence value as an index for intracellular Ca^2+ concentration. The antagonistic activity of the test compound was calculated with the fluorescence value of a well supplemented with only a dilution buffer solution as 100% and the fluorescence value of a well supplemented with a buffer solution containing neither the ligand nor the compound as 0%, and determined in terms of 50% inhibitory concentration (IC50 value) from fluorescence values derived from the test compound added at varying concentrations.

[2] = target: T2, orexin type 2 receptor (hOX2R) (Homo sapiens, UniProt O43614); experiment: Orexin receptor antagonistic activity, intracellular Ca2+ fluorescence (FDSS) in CHO cells expressing hOX2R; format: cell-based; settings: CHO cells forced to express hOX2R; orexin-A analogue peptide ligand 3 nM; Fluo-4 maximum fluorescence; read-out: IC50 value OX2R
T2 construct: expressed in transfected cells; host or cells: Chinese hamster ovary (CHO) cells
T2 sequence (O43614 1-444): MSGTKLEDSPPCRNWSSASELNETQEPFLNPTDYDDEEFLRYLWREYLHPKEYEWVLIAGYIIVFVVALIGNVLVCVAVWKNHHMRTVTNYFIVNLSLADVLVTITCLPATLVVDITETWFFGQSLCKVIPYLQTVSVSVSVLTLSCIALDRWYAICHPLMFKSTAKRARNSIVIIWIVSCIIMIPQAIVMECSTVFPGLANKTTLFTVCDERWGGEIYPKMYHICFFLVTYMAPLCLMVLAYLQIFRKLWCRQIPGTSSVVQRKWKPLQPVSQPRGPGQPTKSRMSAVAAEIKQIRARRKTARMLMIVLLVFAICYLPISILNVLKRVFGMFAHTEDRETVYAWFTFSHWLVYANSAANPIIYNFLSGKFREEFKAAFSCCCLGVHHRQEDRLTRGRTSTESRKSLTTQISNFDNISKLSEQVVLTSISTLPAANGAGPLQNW
Experimental: as §1, §2

| Structure (SMILES) | IC50 [1] | IC50 [2] |
| --- | --- | --- |
| CCN(CCn1cc(-c2cccc(C)n2)cn1)C(=O)c1cc(C)ccc1-n1nccn1 [Example 12, N-ethyl-N-{2-[4-(6-methylpyridin-2-yl)-1H-pyrazol-1-yl]ethyl}-5-methyl-2-(2H-1,2,3-triazol-2-yl)benzamide] | 1.8 nM | 22.7 nM |
| CCN(CCn1ccc(-c2ccc(F)cn2)n1)C(=O)c1cc(C)ccc1-c1cccnc1 [Example 36, N-ethyl-N-{2-[3-(5-fluoropyridin-2-yl)-1H-pyrazol-1-yl]ethyl}-5-methyl-2-(pyridin-3-yl)benzamide] | 30.6 nM | 58.9 nM |
| CCN(CCn1cc(-c2ccc(F)cn2)cn1)C(=O)c1cc(F)ccc1-n1nccn1 [Example 56, N-ethyl-5-fluoro-N-{2-[4-(5-fluoropyridin-2-yl)-1H-pyrazol-1-yl]ethyl}-2-(2H-1,2,3-triazol-2-yl)benzamide] | 38 nM | 95.9 nM |
| CCN(CCn1ccc(-c2cc(C(F)(F)F)ccn2)n1)C(=O)c1cc(F)ccc1-c1ncccn1 [Example 61, N-ethyl-5-fluoro-2-(pyrimidin-2-yl)-N-(2-{3-[4-(trifluoromethyl)pyridin-2-yl]-1H-pyrazol-1-yl}ethyl)benzamide] | 239 nM | 1130 nM |
| CCN(CCn1ccc(-c2ccccn2)n1)C(=O)c1cc(C)ccc1-n1nccn1 [Example 9, N-ethyl-5-methyl-N-{2-[3-(pyridin-2-yl)-1H-pyrazol-1-yl]ethyl}-2-(2H-1,2,3-triazol-2-yl)benzamide] | 1 nM | 4.3 nM |
| Cc1ccc(-n2nccn2)c(C(=O)N(CCn2ccc(-c3ccc(F)cn3)n2)C2CC2)c1 [Example 30, N-cyclopropyl-N-{2-[3-(5-fluoropyridin-2-yl)-1H-pyrazol-1-yl]ethyl}-5-methyl-2-(2H-1,2,3-triazol-2-yl)benzamide] | 1.3 nM | 1.8 nM |
| CCN(CCn1ccc(-c2cccc(C(F)(F)F)n2)n1)C(=O)c1ccccc1-c1ncccn1 [Example 58, N-ethyl-(pyrimidin-2-yl)-N-(2-{3-[6-(trifluoromethyl)pyridin-2-yl]-1H-pyrazol-1-yl}ethyl)benzamide] | 78.9 nM | 140 nM |
| CCN(CCn1ccc(-c2ccc(F)cn2)n1)C(=O)c1ccc(C)cc1-n1nccn1 [Example 47, N-ethyl-N-{2-[3-(5-fluoropyridin-2-yl)-1H-pyrazol-1-yl]ethyl}-4-methyl-2-(2H-1,2,3-triazol-2-yl)benzamide] | 0.8 nM | 7.1 nM |
| CCN(CCn1cc(-c2ccc(F)cn2)cn1)C(=O)c1cc(Cl)ccc1-n1nccn1 [Example 55, 5-Chloro-N-ethyl-N-{2-[4-(5-fluoropyridin-2-yl)-1H-pyrazol-1-yl]ethyl}-2-(2H-1,2,3-triazol-2-yl)benzamide] | 1.6 nM | 2.3 nM |
| Cc1ccc(-n2nccn2)c(C(=O)N(CCF)CCn2ccc(-c3ccc(F)cn3)n2)c1 [Example 21, N-{2-[3-(5-fluoropyridin-2-yl)-1H-pyrazol-1-yl]ethyl}-5-methyl-N-(2-fluoroethyl)-2-(2H-1,2,3-triazol-2-yl)benzamide] | 3.7 nM | 20.3 nM |
| Cc1ccc(-n2nccn2)c(C(=O)N(C)CCn2cc(-c3ccc(F)cc3)cn2)c1 [Example 3-2, N-{2-[4-(4-fluorophenyl)-1H-pyrazol-1-yl]ethyl}-N,5-dimethyl-2-(2H-1,2,3-triazol-2-yl)benzamide] | 2.2 nM | 7.1 nM |
| Cc1ccc(-n2nccn2)c(C(=O)N(CCn2cc(-c3ccc(F)cn3)cn2)C2CC2)c1 [Example 13, N-cyclopropyl-N-{2-[4-(5-fluoropyridin-2-yl)-1H-pyrazol-1-yl]ethyl}-5-methyl-2-(2H-1,2,3-triazol-2-yl)benzamide] | 9.8 nM | 15.4 nM |
| CCN(CCn1ccc(-c2cccc(C(F)(F)F)n2)n1)C(=O)c1cc(C)ccc1-n1nccn1 [Example 52, N-ethyl-5-methyl-2-(2H-1,2,3-triaz ° 1-2-yl)-N-(2-{3-[6-(trifluoromethyl)pyridin-2-yl]-1H-pyrazol-1-yl}ethyl)benzamide] | 1.1 nM | 1.3 nM |
| Cc1ccc(-n2nccn2)c(C(=O)N(CCn2cc(-c3ccc(F)cn3)cn2)CC2CC2)c1 [Example 5, N-(cyclopropylmethyl)-N-{2-[4-(5-fluoropyridin-2-yl)-1H-pyrazol-1-yl]ethyl}-5-methyl-2-(2H-1,2,3-triazol-2-yl)benzamide] | 102 nM | 38.7 nM |
| Cc1ccc(-n2nccn2)c(C(=O)N(CCn2ccc(-c3ccc(F)cn3)n2)CC2CC2)c1 [Example 18, N-(cyclopropylmethyl)-N-{2-[3-(5-fluoropyridin-2-yl)-1H-pyrazol-1-yl]ethyl}-5-methyl-2-(2H-1,2,3-triazol-2-yl)benzamide] | 6.8 nM | 2.2 nM |
| CCN(CCn1ccc(-c2ccc(C(F)(F)F)cn2)n1)C(=O)c1cc(C)ccc1-n1nccn1 [Example 51, N-ethyl-5-methyl-2-(2H-1,2,3-triazol-2-yl)-N-(2-{3-[5-(trifluoromethyl)pyridin-2-yl]-1H-pyrazol-1-yl}ethyl)benzamide] | 50.9 nM | 394 nM |
| CCN(CCn1ccc(-c2ccc(F)cn2)n1)C(=O)c1cc(F)ccc1-n1nccn1 [Example 24, N-ethyl-N-{2-[3-(5-fluoropyridin-2-yl)-1H-pyrazol-1-yl]ethyl}-5-fluoro-2-(2H-1,2,3-triazol-2-yl)benzamide] | 7.2 nM | 12.2 nM |
| CCN(CCn1ccc(-c2ccc(F)cn2)n1)C(=O)c1cc(C)ccc1-n1nccn1 [Example 19, N-ethyl-N-{2-[3-(5-fluoropyridin-2-yl)-1H-pyrazol-1-yl]ethyl}-5-methyl-2-(2H-1,2,3-triazol-2-yl)benzamide] | 1.5 nM | 3.9 nM |
| CN(CCn1ccc(-c2ccc(F)cn2)n1)C(=O)c1cc(F)ccc1-n1nccn1 [Example 23-2, N-methyl-N-{2-[3-(5-fluoropyridin-2-yl)-1H-pyrazol-1-yl]ethyl}-5-fluoro-2-(2H-1,2,3-triazol-2-yl)benzamide] | 76 nM | 132 nM |
| Cc1ccc(-n2nccn2)c(C(=O)NCCn2cc(-c3ccc(F)cn3)cn2)c1 [Example 1, N-{2-[4-(5-fluoropyridin-2-yl)-1H-pyrazol-1-yl]ethyl}-5-methyl-2-(2H-1,2,3-triazol-2-yl)benzamide] | 1040 nM | 2390 nM |
| Cc1ccc(-n2nccn2)c(C(=O)N(CCn2cc(-c3ccc(F)cc3)cn2)CC2CC2)c1 [Example 6, N-(cyclopropylmethyl)-N-{2-[4-(4-fluorophenyl)-1H-pyrazol-1-yl]ethyl}-5-methyl-2-(2H-1,2,3-triazol-2-yl)benzamide] | 50.1 nM | 2.6 nM |
| CCN(CCn1cc(-c2ccc(F)cn2)cn1)C(=O)c1cc(C)ccc1-c1ncccn1 [Example 15, N-ethyl-N-{2-[4-(5-fluoropyridin-2-yl)-1H-pyrazol-1-yl]ethyl}-5-methyl-2-(pyrimidin-2-yl)benzamide] | 29.8 nM | 88.3 nM |
